Ends that are not written are not given here.
How the values were obtained:
[1] = test system: MCF-10A and CCD-18Co; assay: Cell-growth-on-bead assay, normal cell lines; assay type: cell-based, human
Method: (§1) Here, multiple breast and colorectal cancer cells and normal breast and colorectal cells were re-suspended at 10^6 cells/ml and incubated with beads. All experiments were repeated 3 times, and the scale bar is 200 μm. […] Here, nuclei were stained with DAPI (blue), and scale bar is 50 μm. […] Here, a whole-cell binding assay was performed to determine the cell binding of AGM-330, and the scale bar is 200 μm. […] Fmoc=9-fluorenylmethoxycarbonyl, DMF=dimethylformamide. […] Here, bar graphs represent the mean±SD, and statistical analyses were performed by one-way ANOVA with Dunnett's multiple comparison. *, **, and *** indicate P<0.05, P<0.01, and P<0.001, respectively.
(§2) The beads were washed extensively with double-distilled water and phosphate-buffered saline (PBS; Welgene Inc., Korea) before screening. Cancer cells and normal cells were detached from culture dishes with trypsin/EDTA (Gibco), washed with their corresponding culture medium, resuspended at 10^6 cells/ml, and incubated with OBOC beads in Petri dishes in a humidified CO2 incubator at 37° C. with shaking (60 rpm). Beads bound by cells appeared under a microscope as rosettes with a central bead covered by one or more layers of cells. The positive beads were picked by pipette under an inverted microscope, treated with guanidine-HCL (8 M, 20 min) to remove cells and proteins on the bead surface, and subjected to a second round of screening with normal breast epithelial cells to eliminate false positive binding. Only beads with cell binding at both rounds were sent for peptide sequencing.
(§3) To identify a novel cancer-specific peptide ligand, the present inventors synthesized about 2, 600,000 libraries using 5 g of Tentagel MB NH2 resin (200 μm, 520,000 beads/g; FIG. 3).

[2] = test system: MDA-MB-231-luc cells; assay: Tumor suppression in breast cancer xenograft model; assay type: in vivo, NPG mice; settings: 16.68 mg/kg
Method: FIG. 14B is a schematic representation of the experimental protocol. Here, anesthetized 6-week-old […] NPG mice were inoculated with a 1:1 mix of Matrigel and 1×10^6 MDA-MB-231-luc cells into the mammary fat pad. […] Nuclei were stained with DAPI (blue), and the scale bar is 50 μm. Bar graphs represent the mean±SD, and statistical analyses were performed by one-way ANOVA with Dunnett's multiple comparison. *, **, and *** indicate P<0.05, P<0.01, and P<0.001, respectively. […]
All animal experiments were performed in accordance with IACUC guidelines (GIST-2019-040). For tumorigenesis experiments, anesthetized 6-week-old female NOD-scid Il2rg^−/− mice (NPG™, VITALSTAR) were inoculated in the mammary fat pad with 1×10^6 MDA-MB-231-luc cells in a volume of 100 μl (n=5˜6 for each group). After tumor cell inoculation, when the tumor volume reached approximately 100 mm^3, the mice were randomly divided into the following five groups: (i) control, (ii) low-dose paclitaxel (2 mg/kg), (iii) high-dose paclitaxel (10 mg/kg), (iv) AGM-330 (16.68 mg/kg or 8.34 mg/kg), and (v) AGM-330-PTX (19.05 mg/kg or 10.71 mg/kg). The tumor size was measured twice a week, and the tumor volume was calculated with the following formula:
For the bioluminescent imaging experiment, D-luciferin (150 mg/kg; PerkinElmer) was intraperitoneally injected into each mouse, and an IVIS 100 imaging system (Xenogen, Corporation, Alameda, CA) was used for bioluminescent monitoring. Mice were anesthetized with vaporized isoflurane (BK Pharm, Ilsan, Korea) and placed in an imaging chamber. After 10 min, each animal was imaged with an exposure time of 1 min. All bioluminescent image data were provided by Living Image software (version 4.5.2, PerkinElmer). Photons detected from tumors were converted to average radiance values (photon/see/cm^2/sr), which are quantitative data obtained from a region of intensity (ROI) and include the photons emitted by bioluminescent cells from an assigned rectangular area over the whole body of each mouse.
Following in vitro proliferation analysis on cancer lines, the present inventors investigated whether AGM-330t-PTX could be a potential therapeutic agent in vivo. The present inventors inoculated MDA-MB-231-luc cells into the mammary fat pad of NPG mice. After the subcutaneous tumors grew to 100 mm^3, comparative efficacy studies were performed by dividing the animals into five groups (n=5/group) treated with vehicle (PBS), AGM-330t (16.68 mg/kg), PTX (2 or 10 mg/kg, respectively) or AGM-330t-PTX (19.05 mg/kg) twice a week by tail vein injection (FIG. 14B). Tumor growth was monitored by measuring volumes twice a week with a caliber rule over the course of 3 weeks.
The present inventors also performed histological staining of the excised tumors, and an independent pathologist evaluated the slides.

[3] = test system: MDA-MB-231-luc tumor; assay: In vivo near-infrared fluorescence imaging in xenograft model of human breast cancer; design: species or system mice; settings: mouse
Method: (§4) FIGS. 11A and 11B show the results of fluorescence confocal microscopy of multiple cancer and normal cells. Here, MCF-10A, MCF-7, MDA-MB-231 (FIG. 11A) or CCD-18Co, HT-29, and HCT-116 (FIG. 11B) cells were incubated with 5 μmol/l AGM-330-FITC for 30 min at 37° C. […] Cells were then fixed with 4% paraformaldehyde, and the nuclei were stained with DAPI. Merge represents AGM-330-FITC, NCL, and nuclear staining by DAPI. AGM-330-FITC represents FITC-conjugated AGM-330. Scale bar is 20 μm. […] Here, plasma membrane, cytosol and nuclear NCL were immunoblotted using anti-NCL antibody. […] Here, MDA-MB-231 cells were transfected for 48 hours. Then, 5 μmol/l of AGM-330-FITC was added for 2 hours. […] Fluorescence was observed using a fluorescent confocal microscope. […] FIGS. 11G and 11H show in vivo fluorescence images of mice 30 min, 1 h, 6 h, and 24 h after intravenous injections of 10 nmol free Alexa680 (FIG. 11G) or 10 nmol AGM-330-Alexa680 (FIG. 11H) in MDA-MB-231-luc tumor-bearing mice. Here, fluorescence images of the major organs including the heart, spleen, lung, brain, liver, kidney, and tumors were removed from mice with different treatments. […] FIGS. 11I and 11J are graphs showing the average radiant efficiency of Alexa680-associated fluorescence from live imaging of three animals in tumors (FIG. 11I) and different organs (FIG. 11J). […]

[4] = test system: human breast cancer cell lines (MCF7 and MDA-MB-231) and human colorectal cancer cell lines (HT-29 and HCT-116); assay: Cell-growth-on-bead assay with resynthesized AGM-330 beads; assay type: cell-based; settings: MCF7, MDA-MB-231, HT-29, HCT-116
Method: as §1
The beads were washed extensively with double-distilled water and phosphate-buffered saline (PBS; Welgene Inc., Korea) before screening. Cancer cells and normal cells were detached from culture dishes with trypsin/EDTA (Gibco), washed with their corresponding culture medium, resuspended at 10^6 cells/ml, and incubated with OBOC beads in Petri dishes in a humidified CO2 incubator at 37° C. with shaking (60 rpm). Beads bound by cells appeared under a microscope as rosettes with a central bead covered by one or more layers of cells. […]

[5] = test system: MDA-MB-231 cells; assay: AGM-330 binding to cells after NCL knockdown (fluorescence confocal microscopy); assay type: cell-based, human
Method: as §4

[6] = test system: MDA-MB-231 cells; assay: Confocal imaging of FITC-labeled peptides; assay type: cell-based, human; settings: compared with AGM-331 and AGM-332
[7] = test system: MCF-10A; assay: Whole-cell binding (cell-growth-on-bead) assay of screened peptide beads; assay type: cell-based, human
Method: as §1, §2, §3

[8] = test system: MDA-MB-231; assay: as above; assay type: cell-based, human
Method: as §1, §2, §3

[9] = target: NCL (Homo sapiens, UniProt P19338); assay: Double-immunofluorescence confocal microscopy with anti-NCL antibody; assay type: cell-based; design: GFP-NCL (residues 1-710); expressed in transfected cells; host or cells: HEK293T; settings: 5 μmol/l, 1 h of incubation
Sequence of NCL (P19338 whole entry, the tested form may be a part): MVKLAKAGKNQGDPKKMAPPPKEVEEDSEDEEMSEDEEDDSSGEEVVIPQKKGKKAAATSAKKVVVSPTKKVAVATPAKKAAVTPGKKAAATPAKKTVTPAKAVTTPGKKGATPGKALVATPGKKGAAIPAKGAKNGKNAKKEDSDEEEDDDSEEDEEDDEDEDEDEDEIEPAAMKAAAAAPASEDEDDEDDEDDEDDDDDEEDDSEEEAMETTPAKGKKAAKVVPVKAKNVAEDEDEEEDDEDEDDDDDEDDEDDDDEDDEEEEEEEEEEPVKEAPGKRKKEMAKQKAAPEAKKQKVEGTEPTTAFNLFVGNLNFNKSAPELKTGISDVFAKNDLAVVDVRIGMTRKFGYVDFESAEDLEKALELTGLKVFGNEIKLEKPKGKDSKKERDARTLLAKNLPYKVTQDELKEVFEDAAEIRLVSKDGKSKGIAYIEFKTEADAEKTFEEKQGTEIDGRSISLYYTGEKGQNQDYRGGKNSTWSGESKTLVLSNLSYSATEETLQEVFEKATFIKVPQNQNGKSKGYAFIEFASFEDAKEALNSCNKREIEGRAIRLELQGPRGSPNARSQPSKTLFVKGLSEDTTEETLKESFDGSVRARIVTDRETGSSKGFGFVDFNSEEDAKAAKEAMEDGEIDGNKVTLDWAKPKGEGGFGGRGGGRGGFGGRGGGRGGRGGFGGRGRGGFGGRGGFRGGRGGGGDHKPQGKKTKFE
Method: FIGS. 11A and 11B show the results of fluorescence confocal microscopy of multiple cancer and normal cells. […] Merge represents AGM-330-FITC, NCL, and nuclear staining by DAPI. AGM-330-FITC represents FITC-conjugated AGM-330. Scale bar is 20 μm. […] Here, plasma membrane, cytosol and nuclear NCL were immunoblotted using anti-NCL antibody. […] Here, MDA-MB-231 cells were transfected for 48 hours. Then, 5 μmol/l of AGM-330-FITC was added for 2 hours. Cells were washed twice with PBS and fixed with 4% paraformaldehyde. Fluorescence was observed using a fluorescent confocal microscope. AGM-330-FITC is FITC-conjugated AGM-330, and the scale bar is 20 μm. […] FIGS. 11G and 11H show in vivo fluorescence images of mice 30 min, 1 h, 6 h, and 24 h after intravenous injections of 10 nmol free Alexa680 (FIG. 11G) or 10 nmol AGM-330-Alexa680 (FIG. 11H) in MDA-MB-231-luc tumor-bearing mice. Here, fluorescence images of the major organs including the heart, spleen, lung, brain, liver, kidney, and tumors were removed from mice with different treatments. […] FIGS. 11I and 11J are graphs showing the average radiant efficiency of Alexa680-associated fluorescence from live imaging of three animals in tumors (FIG. 11I) and different organs (FIG. 11J).
The present inventors evaluated the specificity of AGM-330 to NCL with cell binding assays against different cell lines using fluorescence microscopy. […]

[10] = test system: MCF-10A and CCD-18Co; assay: FACS binding of AGM-330-FITC to normal cells; assay type: cell-based, human; settings: 2 h of incubation, versus cancer cells
[11] = test system: MCF-7, MDA-MB-231, HT-29, and HCT-116; assay: FACS binding of AGM-330-FITC to cancer cells; assay type: cell-based, human; settings: 2 h, 37° C., serum-free medium
[12] = target: T1, recombinant nucleolin protein (UniProt P19338 1-710, limits assumed); assay: SPR (Biacore T-200), recombinant NCL immobilised on a CM5 chip, AGM-330 at 20 nM to 2.5 uM
T1 construct: also called recombinant NCL; NCL
T1 sequence (P19338 whole entry): as the sequence (P19338 whole entry, the tested form may be a part) above
Method: (§5) The SPR sensorgrams shown are from an experiment that is representative of a set of three separate experiments using different sensor chips with similar results. Recombinant NCL was immobilized onto a CM5 sensor chip. Various concentrations of AGM-330 (20 nM to 2.5 µM) were incubated with immobilized NCL and analyzed on a Biacore T-200 apparatus.
(§6) Binding affinity was tested by SPR (surface plasmon resonance) spectroscopy (Biacore T-200). The recombinant nucleolin protein was immobilized on the CM5 sensorchip, and the treated with AGM-330 at various concentrations (20 nM to 2.5 µM). The sensogram for each sample was analyzed to determine the KD value.

[13] = target: T1, recombinant nucleolin protein; assay: SPR (Biacore T-200), recombinant NCL immobilised on a CM5 chip, AGM-330 20 nM to 2.5 µM as analyte
Method: as §5, §6

RHGAMVYLK [AGM-330, name also used for its PEGylated MAP dendrimeric forms]
binding to normal cell lines MCF-10A and CCD-18Co [1]: bound either very weakly or not at all | difference in the average tumor volume versus vehicle (PBS)-treated mice [2]: no significant difference | distribution in tumor tissue versus normal organs (NIRF images) [3]: mainly accumulated throughout the tumor tissue rather than normal organs | time until beads were fully covered by cancer cell lines [4]: ≤ 15 min | fluorescence signal (AGM-330 binding) in siNCL1-treated cells [5]: little or no fluorescence signal | fluorescence signals of FITC-labeled peptide on MDA-MB-231 cells [6]: strongest fluorescence signals | binding to the human normal breast cell line MCF-10A [7]: no or only weak binding | binding to MDA-MB-231 [8]: strong preferential binding

AGM-330-FITC (RHGAMVYLK; also: FITC-labelled (site not given here))
colocalization with NCL staining [9]: overlap between NCL and AGM-330-FITC | binding to normal cells (MFI) [10]: significant decrease in binding | cancer cell binding (increase in MFI relative to untreated cells) [11]: significant cancer cell binding

B1: AGM-330 (peptide)
peptide: RHGAMVYLK
modifications: not fully specified (C-terminus); also: MAP dendrimer (dimer/tetramer) on lysine core with C-terminal Cys
notes: The form used in SPR (monomer, dimer or tetramer); also called AGM-330 peptide; AGM peptide ligand
Kd [12]: ~57.7 nM | Kd [13]: 57.7 nM

Source: patent US20250032629A1, “NOVEL NUCLEOLIN-BINDING PEPTIDE AND USE THEREOF” (ANYGEN CO., LTD., priority 2020, published 2025)
